Like-named read-outs stand apart in the source and are kept apart here.
How the values were obtained:
[1] = target: phosphodiesterase type V (PDE-5) (Homo sapiens, UniProt O76074); assay: PDE-5 inhibition assay; format: biochemical
[2] = Partition of icariside I between ethyl acetate and water; format: physicochemical; conditions: hydrolyzate adjusted to pH 7.0
Protocol: The ethanolic hydrolyzate (25 mL) prepared in Example 1 was mixed with 62.5 mL of de-ionized water and the pH was adjusted to 7.0 using 50% (w/w) sodium hydroxide solution. The resulting mixture was extracted with three 25 mL portions of ethyl acetate and the combined ethyl acetate extracts were back extracted with 150 mL of water.

Row | PDE-5 inhibition (in words) [1] | IC50 ([1]; read-out: PDE-5 IC50 (converted)) [nM] | partition coefficient between ethyl acetate and water [2] | PDE-5 IC50 [1] [μg/mL] | IC50 [1] [nM] | PDE-5 inhibition (in words) ([1]; listed as anhydroicaritin) | SMILES
1 | strong PDE-5 inhibitor | 622 | 16 |  |  |  | COc1ccc(-c2oc3c(CC=C(C)C)c(O[C@@H]4O[C@H](CO)[C@@H](O)[C@H](O)[C@H]4O)cc(O)c3c(=O)c2O)cc1 [Entry 10, icariside I]
2 | essentially inactive |  |  | 21.50 |  |  | COc1ccc(-c2oc3c(CCC(C)(C)O)c(O[C@@H]4O[C@H](CO)[C@@H](O)[C@H](O)[C@H]4O)cc(O)c3c(=O)c2O)cc1 [Entry 12, icariside I hydrate]
3 | significant inhibition of PDE-5 |  |  |  | 4070 | strong PDE-5 inhibitor | COc1ccc(-c2oc3c(CC=C(C)C)c(O)cc(O)c3c(=O)c2O)cc1 [Entry 11, anhydroicaritin]
